Source: publication PMC6127322, “Novel Imidazole and Methoxybenzylamine Growth Inhibitors Affecting Salmonella Cell Envelope Integrity and its Persistence in Chickens” (Scientific Reports, 2018)
Values after ≈ are worked out from the molar mass of the structure shown. Marks after values point to notes of the source that are not given here.

Legend:
Salmonella Enteritidis = test: Dose-response assay (MBC) on Salmonella serovars; type: cell-based; conditions: Salmonella enterica; serovar Enteritidis, M9 broth
Salmonella Saint-Paul = test: Dose-response assay (MBC) on Salmonella serovars; type: cell-based, Salmonella enterica; conditions: serovar Saint-Paul, M9 broth
[1] = test system: Salmonella enterica subsp. enterica serotype Typhimurium; test: Checkerboard assay, SM and antibiotic combinations; type: cell-based; conditions: for MBC: Salmonella enterica, TYPHIMURIUM, SM alone, read-out: SM MBCalone; for Reduction of cefeprime MBC / Reduction of meropenem MBC: sub-lethal concentration of SM
Experimental: The potentiation effect of several antibiotics, commonly used to control Salmonella, was studied in a checkerboard assay. […] The MBC of each antibiotic was determined in M9 medium prior the experiment using a dose-response assay, as described above. For potentiation studies, 100 μl of a S. […] The MBC of each antibiotic was determined as described in the dose-response assay. Bacteria challenged with SMs or antibiotics alone at the same concentrations were used to determine the antibiotic-SM combination effects. […] Further, the bacterial suspension was plated on an agar medium and incubated at 37 °C for 36 hrs. The antibiotic-SM combination effect was calculated based on the determination of the fractional bactericidal concentration (FBC) as previously described[66],[67].

[2] = test system: Campylobacter jejuni 81–176; test: Activity spectrum on foodborne pathogens; type: cell-based; conditions: 200 µM
[3] = test system: S. Typhimurium cell surface; test: Scanning electron microscopy (SEM); type: cell-based, Salmonella enterica subsp. enterica serovar Typhimurium; conditions: 5X MBC for 3 hrs, compared to DMSO control
Experimental: Processing of the samples for SEM was performed with the same samples as above and as previously described. Briefly, one volume of bacterial suspension was mixed with one volume of fixative (3% glutaraldehyde, 1% paraformaldehyde in 0.1 M potassium phosphate buffer pH 7.2), and incubated for 2 hrs at 4 °C. Fixed cells were centrifuged for 5 min at 1,200 g, washed twice with 1X PBS, and resuspended into 1% osmium tetroxide for 1 hr at room temperature in the dark, followed by serial dehydration of the sample in ethanol and platinum splatter-coating. Visualization and imaging of the samples was performed using a Hitachi S-4700 scanning electron microscope.

chicken red blood cells = test: Hemolytic activity; type: cell-based; conditions: chicken RBCs, 200 µM, 1 hr
Experimental: (§1) Briefly, 200 µl of 10% sheep or chicken RBC suspension was incubated with 1 µl of SMs (200 µM) for 1 hr at 37 °C in a 96-well plate. After incubation, the plate was centrifuged at 3700 X g for 5 min at 4 °C and then placed on ice for five min. One hundred microliters of the supernatant were transferred into a fresh 96-well plate, and the OD was measured at 540 nm. One percent DMSO and 0.1% Triton-100X were used as negative and positive controls, respectively. Percentage hemolysis was calculated as: [(OD540 SM − OD540 DMSO)/(OD540 1X triton − OD540 PBS)] × 100.

sheep red blood cells = test: Hemolytic activity; type: cell-based; conditions: sheep RBCs, 200 µM, 1 hr
Experimental: as §1

chicken cecal microbiota = test: Cecal microbiota, 16S rRNA sequencing; type: in vivo; conditions: compared to the DMSO group, P < 0.01
Salmonella Albany = test: Dose-response assay (MBC) on Salmonella serovars; type: cell-based; conditions: Salmonella enterica; serovar Albany, M9 broth
Salmonella Anatum = test: Dose-response assay (MBC) on Salmonella serovars; type: cell-based; conditions: Salmonella enterica; serovar Anatum, M9 broth
Salmonella Braenderup = test: Dose-response assay (MBC) on Salmonella serovars; type: cell-based; conditions: Salmonella enterica; serovar Braenderup, M9 broth
[4] = test system: avian Mycoplasma gallisepticum; test: Activity spectrum on avian pathogens; type: cell-based; conditions: 100 µM, unpublished data
[5] = test system: S. Typhimurium in infected Caco-2, HD11, and THP-1 cell lines; test: S. Typhimurium survival in infected cell lines, summary over lines; type: cell-based, Salmonella enterica subsp. enterica serotype Typhimurium; conditions: over the three cell lines
Experimental: The ability of four SMs to clear S. Typhimurium was evaluated using three cell lines (Caco-2 cells, HD11, and THP-1 cells) as previously described. A multiplicity of infection (MOI) of 10 was used. Infected cells were treated with 1 µl of SMs (final concentration ranged between 100 µM and 6.25 µM) and incubated at 37 °C for 24 hrs in humidified, 5% CO2 incubator. Following incubation, cells were washed once with 1X PBS, lysed with 0.1% Triton-100X, serial ten-fold diluted in 1X PBS, and plated on agar plate. Plates were incubated at 37 °C for 24 hrs to determine the intracellular bacteria. Cells not infected and not treated, and cells infected and treated with 2% DMSO were used as controls.

Bifidobacterium longum = test: Growth of probiotic bacteria at 200 µM; type: cell-based; conditions: data not shown
Lactobacillus brevis = test: Growth of probiotic bacteria at 200 µM; type: cell-based; conditions: data not shown
[6] = test system: Lactobacillus rhamnosus GG; test: Growth of probiotic bacteria at 200 µM; type: cell-based; conditions: data not shown
[7] = test system: PhoP regulon in S. Typhimurium; set-up: method as in PubChem bioassay AID #1863, #1981, #2253, and #2401; conditions: ref PubChem bioassay AID #1863, #1981, #2253, and #2401; cited from earlier work
[8] = SM combined with nalidixic acid

SMILES	MBC (Salmonella Enteritidis) [µM]	MBC (Salmonella Saint-Paul) [µM]	SM MBCcombined ([1]; SM combined with cefotaxime)	SM MBCcombined ([1]; SM combined with erythromycin)	MBC [1] [µM]	Reduction of cefeprime MBC [1]	Reduction of meropenem MBC [1] [fold]	Cell surface phenotype in SEM [3]	Hemolytic activity (chicken red blood cells)	Hemolytic activity (sheep red blood cells)	Salmonella OTUs in ceca (chicken cecal microbiota)	MBC (Salmonella Albany) [µM]	SM MBCcombined [1, 8]	Effect on Mycoplasma gallisepticum [4]	also measured
CC1CCC(C(C)C)C(OC(=O)Cn2c[n+](CC(=O)OC3CC(C)CCC3C(C)C)c3ccccc32)C1 (stereo not shown) [SM1]	100	100	50 µM	50 µM	50	at least 5 fold	5	distorted	> 50%	> 50%	reduction	–	–	–	Effect on Campylobacter jejuni 81–176 [2]: lethal
CCCCCCCCCCCCCCCC[n+]1ccn(CC#N)c1 [SM3]	25	50	25^c μM	25^c μM	25	at least 5 fold	2.5	–	below 49%	below 18%	–	25	25^c μM	lethal	MBC (Salmonella Anatum): 25 µM; MBC (Salmonella Braenderup): 25 µM; Concentration clearing internalized Salmonella [5]: 50 µM
CCOc1cc(/C=N/N=C(N)N)ccc1OCc1ccc(Cl)cc1 [SM5]	50 (≈ 17.3 µg/mL)	50 (≈ 17.3 µg/mL)	25^c μM	25^c μM	25	–	–	outer membrane vesicles of approximately 100 to 300 nm diameter	lower than 1%	lower than 1%	reduction	100 (≈ 34.7 µg/mL)	25^c μM	lethal	SM MBCcombined ([1]; SM combined with cefeprime): 25^c μM; SM MBCcombined ([1]; SM combined with ciprofloxacin at the concentration in the cell before): 20^b μM; SM MBCcombined ([1]; SM combined with meropenem): 25^c μM; Effect on growth of Bifidobacterium longum (Bifidobacterium longum): did not affect the growth; Effect on growth of Lactobacillus brevis (Lactobacillus brevis): did not affect the growth; Effect on growth of Lactobacillus rhamnosus GG [6]: did not affect the growth; Activity on the PhoP regulon [7]: direct or indirect inhibitor
